Measurements taken from patent US11090247B2, “Compositions for protecting the skin from heavy metals and formaldehyde” (FNG RESEARCH CO., LTD., priority 2016, dated 2021).

Columns and labels:
[1] = Removal test of heavy metals of active ingredients (pig skin, ICP-MS): Pb; conditions: contaminated pig skin
Protocol: (§1) (1) Preparation of Heavy Metal Contamination Sources and Pig Skin Samples
(§2) A pig was slaughtered, flayed and the bristle was shaved. The pig skin was cut to prepare 5*5 cm size of skin samples respectively.
(§3) The said skin samples were cleanly wiped with wet gauze, and then, added to 50 ml of methanol and extracted by shaking with ultrasonic for 60 min. 50 ml of methanol was further added and mixed. The pig skin samples were removed from the extracted solutions to prepare the test solutions.
(§4) The test solutions were analyzed for heavy metal components using an inductively coupled plasma mass spectrometer (ICP-MS, Xseries™ 2, Thermo Fisher Scientific, UK).

[2] = Removal test of heavy metals of active ingredients (pig skin, ICP-MS): Cd; conditions: contaminated pig skin
Protocol: as §1, §2, §3, §4

[3] = Removal test of heavy metals of active ingredients (pig skin, ICP-MS): Cu; conditions: contaminated pig skin
Protocol: as §1, §2, §3, §4

[4] = test system: human skin; experiment: Skin irritation test of active ingredient (patch method, CTFA guidelines); assay type: in vivo; parameters: key to Degree of irritation: 0–0.1 none, 0.11–0.3 weak, 0.31–0.5 moderate, ≥0.51 strong irritation; conditions: 20 people, patch 24 hours; for Test result(number of subject) (+): (+): Apparent reddening than periphery; for Test result(number of subject) (++): (++): More reddened and swollen than periphery; for Test result(number of subject) (±): (±): slightly reddish than the periphery; for Test result(number of subject) (−): (−): No erythema or particularly no symptoms
Protocol: A total of 20 people (10 men and 10 women in their 20 s and 30 s) were tested for skin irritation using the patch method according to the guidelines of CTFA (The Cosmetic, Toiletry & Fragrance Association, Inc. Washington, D.C.).
A filter paper disk was placed in an 8 mm diameter, 10 panels of pin chamber.
After 24 hours, the pin chamber was removed, and skin conditions were visually observed.
[Criteria for Skin Irritation]
(−): No erythema or particularly no symptoms; (±): slightly reddish than the periphery; (+): Apparent reddening than periphery; (++): More reddened and swollen than periphery.
[Grade for Skin Irritation]
Degree of irritation 0-0.1: Grade I (unstimulated);
Degree of irritation 0.11-0.3: Grade II (weakly stimulated);
Degree of irritation 0.31-0.5: Grade III (moderately stimulated);
Degree of irritation 0.51 or more: Grade IV (strongly stimulated)

[5] = Formaldehyde removing ability test (GC); conditions: 2.0% formaldehyde solution; for Area (mAU*min) 30 min: formaldehyde GC area after 30 min; for Area (mAU*min) 30 min / Area (mAU*min) 180 min: 3 molar equivalents, room temperature; for Area (mAU*min) 180 min: formaldehyde GC area after 180 min; for Area (mAU*min) Initial: formaldehyde GC area, initial state, 3 molar equivalents of compound

SMILES	Removal of Heavy metals Pb (%) ([1]; 0.1 wt % aqueous solution)	Removal of Heavy metals Pb (%) ([1]; 0.5 wt % aqueous solution)	Removal of Heavy metals Pb (%) ([1]; 1.0 wt % aqueous solution)	Removal of Heavy metals Cd (%) ([2]; 0.1 wt % aqueous solution)	Removal of Heavy metals Cd (%) ([2]; 0.5 wt % aqueous solution)	Removal of Heavy metals Cd (%) ([2]; 1.0 wt % aqueous solution)	Removal of Heavy metals Cu (%) ([3]; 0.1 wt % aqueous solution)	Removal of Heavy metals Cu (%) ([3]; 0.5 wt % aqueous solution)	Removal of Heavy metals Cu (%) ([3]; 1.0 wt % aqueous solution)	Degree of irritation ([4]; 0.1 wt %)	Grade ([4]; 0.1 wt %)	Test result(number of subject) (+) ([4]; 0.1 wt %)	Test result(number of subject) (++) ([4]; 0.1 wt %)	Test result(number of subject) (±) ([4]; 0.1 wt %)	Test result(number of subject) (−) ([4]; 0.1 wt %)	Degree of irritation ([4]; 0.5 wt %)	Grade ([4]; 0.5 wt %)	Test result(number of subject) (+) ([4]; 0.5 wt %)	Test result(number of subject) (++) ([4]; 0.5 wt %)	Test result(number of subject) (±) ([4]; 0.5 wt %)	further results
O=C(O)CN(CCN(CCN(CC(=O)O)CC(=O)O)CC(=O)O)CCN(CC(=O)O)CC(=O)O [Embodiment 1, 3,6,9,12-tetrakis(carboxymethyl)-3,6,9,12-tetraazatetradecanedioic acid]	91.1	92.0	92.1	91.0	93.0	94.1	95.2	97.3	97.5	0	I (Degree of irritation 0-0.1: Grade I (unstimulated))	0	0	0	20	0.05	I (Degree of irritation 0-0.1: Grade I (unstimulated))	0	0	1	Test result(number of subject) (−) ([4]; 0.5 wt %): 19; Degree of irritation ([4]; 1.0 wt %): 0.20; Grade ([4]; 1.0 wt %): II (Degree of irritation 0.11-0.3: Grade II (weakly stimulated)); Test result(number of subject) (+) ([4]; 1.0 wt %): 0; Test result(number of subject) (++) ([4]; 1.0 wt %): 0; Test result(number of subject) (±) ([4]; 1.0 wt %): 4; Test result(number of subject) (−) ([4]; 1.0 wt %): 16; Area (mAU*min) 30 min [5]: 0.170 mAU*min; Area (mAU*min) 180 min [5]: 0 mAU*min; Area (mAU*min) Initial [5]: 0.305 mAU*min
O=C(O)c1ccc(N(CCN(CCN(c2ccc(C(=O)O)cc2)c2ccc(C(=O)O)cc2)c2ccc(C(=O)O)cc2)CCN(c2ccc(C(=O)O)cc2)c2ccc(C(=O)O)cc2)cc1 [Embodiment 2, 4,4′,4″,4′″-(((ethane-1,2-diylbis((4-carboxyphenyl)azanediyl))bis(ethane-2,1-diyl))bis(azanetriyl))tetrabenzoic acid]	86.4	88.6	89.0	87.3	89.7	90.5	93.5	95.8	96.9	0	I (Degree of irritation 0-0.1: Grade I (unstimulated))	0	0	0	20	0	I (Degree of irritation 0-0.1: Grade I (unstimulated))	0	0	0	Test result(number of subject) (−) ([4]; 0.5 wt %): 20; Degree of irritation ([4]; 1.0 wt %): 0.05; Grade ([4]; 1.0 wt %): I (Degree of irritation 0-0.1: Grade I (unstimulated)); Test result(number of subject) (+) ([4]; 1.0 wt %): 0; Test result(number of subject) (++) ([4]; 1.0 wt %): 0; Test result(number of subject) (±) ([4]; 1.0 wt %): 1; Test result(number of subject) (−) ([4]; 1.0 wt %): 19; Area (mAU*min) 30 min [5]: 0.168 mAU*min; Area (mAU*min) 180 min [5]: 0 mAU*min; Area (mAU*min) Initial [5]: 0.305 mAU*min
O=C(O)c1ccc(N(CCN(CCN(c2ccc(C(=O)O)o2)c2ccc(C(=O)O)o2)c2ccc(C(=O)O)o2)CCN(c2ccc(C(=O)O)o2)c2ccc(C(=O)O)o2)o1 [Embodiment 4, 5,5′,5″,5′″-(((ethane-1,2-diylbis((5-carboxyfuran-2-yl)azanediyl))bis(ethane-2,1-diyl))bis(azanetriyl))tetrakis(furan-2-carboxylic acid)]	86.2	89.7	90.8	87.7	90.6	91.8	92.5	96.2	97.2	0	I (Degree of irritation 0-0.1: Grade I (unstimulated))	0	0	0	20	0	I (Degree of irritation 0-0.1: Grade I (unstimulated))	0	0	0	Test result(number of subject) (−) ([4]; 0.5 wt %): 20; Degree of irritation ([4]; 1.0 wt %): 0.05; Grade ([4]; 1.0 wt %): I (Degree of irritation 0-0.1: Grade I (unstimulated)); Test result(number of subject) (+) ([4]; 1.0 wt %): 0; Test result(number of subject) (++) ([4]; 1.0 wt %): 0; Test result(number of subject) (±) ([4]; 1.0 wt %): 1; Test result(number of subject) (−) ([4]; 1.0 wt %): 19; Area (mAU*min) 30 min [5]: 0.173 mAU*min; Area (mAU*min) 180 min [5]: 0 mAU*min; Area (mAU*min) Initial [5]: 0.305 mAU*min
